According to patent US20260335251A1, “RED BLOOD CELL-HITCHHIKING IONIC LIQUID COATED NANOPARTICLES FOR CROSSING THE BLOOD BRAIN BARRIER” (University of Mississippi, priority 2022, published 2026):
Entries after “also recorded” stand apart in the source; their conditions may differ.

Assays:
[1] = tested on: microglia, astrocytes, endothelial cells in brain; test: Confocal/widefield immunofluorescence of brain sections (cellular localization); format: in vivo, Sprague-Dawley rat; settings: Iba-1, GFAP, von Willebrand factor
Description: Confocal Fluorescence: Perfused and cryopreserved rat brains were sectioned using a microtome (Leica Biosystems, #CM3050S) at 20-micron thickness. The slides were washed twice with 1×PBS and permeabilized (with 0.1% Triton-X, 0.1% BSA in PBS) for 30 min at 25° C. The permeabilized slides were blocked (1% BSA, 1% normal goat serum in PBS) for an additional 30 min at 25° C. and followed by probing with primary rabbit-anti-IBal (1:200 dilution) or […] (1:250 dilution) for 90 min at 25° C. At the end of the incubation, the slides were washed 3x with PBS and followed by incubation with secondary antibodies (Texas Red Goat-anti Rabbit, 1:500 for IBa1 and Alexa 488 goat anti-mouse, 1:500 for GFP), 1 hr at 25° C. To stain cellular nuclei, Hoechst stain was used at 1:10000 dilution. All dilutions represented as (vol/vol). The slides were washed 3× with 1×PBS and mounted with antifade media and kept at 4° C. for further analysis with confocal microscopy. […]
To both qualitatively and quantitatively confirm IL-PLGA NP selectivity for cells comprising the HIV reservoir, brain sections (40 μm) collected from rats used above were co-labeled for protein markers of astrocytes (GFAP; FIG. 3B) and microglia (Iba-1; FIG. 3C) with a Hoechst nuclear counterstain (FIG. 3A). […]

red blood cells = test: Red blood cell hitchhiking of nanoparticles coated with the ionic liquid; format: cell-based; settings: nanoparticles coated with this ionic liquid
[2] = Quantitative encapsulation of ABC (1H NMR); format: physicochemical; settings: for ABC encapsulated: ~1 mg/mL NPs, from an added 74.1 μg/mL, quantitative 1H NMR
Description: Quantitative encapsulation of ABC (^1H NMR): PLGA and CA2HA 1:2 PLGA NPs were synthesized in deuterium oxide as described previously, and then resuspended to 500 μL (2 mg/mL) to quantitatively measure composition of the IL coating on the surface of the PLGA NPs with 20 μL Tetramethylsilane (TMS) internal quantification standard: ^1H NMR (400 MHz, D2O) δ 6.85 (dt, J=15.8, 7.0 Hz, 27H), 5.85 (dt, J=15.7, 1.5 Hz, 28H), 4.78 (d, J=1.3 Hz, 7140H), 4.09-4.02 (m, 27H), 3.81-3.71 (m, 21H), 3.64 (dd, J=11.8, 4.5 Hz, 45H), 3.60-3.47 (m, 73H), 3.25 (s, 136H), 2.72 (d, J=1.3 Hz, 14964H), 2.19 (qd, J=7.2, 1.6 Hz, 69H), 1.56-1.46 (m, 47H), 0.91 (t, J=7.4 Hz, 96H), 0.00 (s, 12H).
To break open the NPs, bare PLGA NPs and IL-PLGA NPs were first sonicated at 60° C. for 30 minutes to destroy the outer IL coating integrity, evidenced by a phase separation of cloudiness in the IL-PLGA NPs. To next dissociate the IL coating from the polymer core, all particles were vortexed at 25° C. on the highest setting for 10 minutes (in 2-minute intervals). The particles were then stored at −80° C. for 2 minutes to protect the ABC drug while inducing a bulk phase separation, and then vortexed at the highest setting for 2 min at 25° C. Lastly, to extrude the abacavir from the polymer core, all NPs were 30 kDa MWCO centrifuge-filtered for 1 hour at 4500 RPM at 40° C. Filtrate smaller than 30 kDa was collected at the bottom of the tube and stored at −20° C., concentrated (2×) with D2O and evaluated for presence of drug by ^1H NMR at 400 MHz at the highest scan rate (proton64).
As the appearance of drug peaks were very small compared to the IL, 2 μL of TMS was then used in particular to obtain a relative understanding of the size of the small emerging peaks. […] Representation of encapsulated ABC dose was then calculated: • 0.002 mL TMS (0.648 g/mL)=0.0013 g TMS • 0.0013 g TMS/88.22 g/mol TMS=0.0000146 mol TMS • 0.0000146 mol TMS (~0.03 integral ratio, 8.5 ppm & 0 ppm peak) ~4.38×10^−7 mol ABC • 4.38× 10-7 mol ABC (286.3 g/mol ABC) ~ (0.000125 g ABC/2) (ug total ~1 mg/mL) ~62.7 μg/mL ABC encapsulated

HIV-1BaL = test: HIV-1 replication in human PBMCs (p24 antigen ELISA); format: cell-based, HIV-1 (in human PBMCs); settings: days 3, 7, 10 post-infection; ABC alone or in NPs p<0.0001; empty IL-coated NPs p=0.04
Description: HIV Expression and Cytotoxicity: 3 independent batches of bare and CA2HA 1:2-coated PLGA NPs were prepared with abacavir (ABC) as above but in sterile Milli-Q water and re-suspended to 1 mg/ml with sterile 1×PBS pH 7.4. As ~60 μg/mL of drug was estimated by quantitative NMR, PBMC cells were stimulated with 10 μg/ml of PHA for 4 days. Stimulated PBMC cells were harvested at 400×g, RT for 10 min. The cells at 2×10^6 cells/mL were used for each experimental condition and infected with 1 ng/ml of HIV-1 Bal+ in presence of 3 ng/ml of IL-2 and 2 μg/ml of polybrene. PBMC cells were treated in the absence or presence of nanoparticles at 10 µM final concentration. […] The cell viability was determined by trypan blue at each harvesting day and an aliquot of condition media was saved for further analysis on p24 antigen assay. […] The p24 antigen assay was performed according to manufacture protocol on experimental condition media collected on 3, 7, 10 days post HIV-1 infection for quantification of HIV-1.
To assess the bioactivity of ART when encapsulated inside PLGA & IL-PLGA NPs, HIV-1 replication was assessed in human peripheral blood mononuclear cells (PBMCs) that were mock-infected or were infected with HIV-1BaL (1 ng/ml) for 10 days. […] Concentration of the HIV-1 capsid protein (p24, ng/ml) was assessed on days 3-, 7-, and 10 post-infection by enzyme-linked immunosorbent assay (ELISA) (FIG. 7).

[3] = Abacavir detection in brain regions (1H-NMR); format: in vivo, Sprague-Dawley rat; settings: 6 h; IL-PLGA NPs with 60 μg/mL ABC, intra-carotid; n=3/group
Description: Abacavir Detection in the Brain: In parallel with DiD-NP injections, Sprague-Dawley rats injected with IL-PLGA NPs (either without cargo or with 60 μg/mL ABC, n=3) were sacrificed at 6 hours post-injection, and whole organs were processed, and frozen post-mortem as described above in Biodistribution. In order to assess to areas of biodistribution of abacavir within the brain, the following regions were sliced and homogenized in a 1:1 mixture of 1×PBS (pH 7.4) and Acetonitrile constituting a total homogenate volume of 500 μL per sample: striatum, midbrain, interbrain, cerebellum, hypothalamus, cerebral cortex, & hippocampus. […] A range of 500-600 μL of liquid filtrate was recovered across all samples, which were all delivered into clean NMR tubes and topped 10% (v/v) with D2O to be evaluated for presence of drug by ^1H NMR at 400 MHz with 90% H2O/10% D2O water suppression.
Once biodistribution was determined with DiD, a new set of healthy, 8-week-old, female, Sprague Dawley rats with in-dwelling carotid catheters received IV infusions (under the same conditions) with either empty, or ABC-encapsulated, IL-coated PLGA NPs (n=3/group). Sites of regional distribution of abacavir cargo were evaluated within the brain (at the same 6-hour endpoint). […]

## CCC/C=C/C(=O)O [CA2HA 1:2, Choline 2-Hexenoate 1:2]
[1]
  Cellular localization in brain: colocalizes with HIV reservoir cells

## CCC/C(C)=C/C(=O)O [CA3ME2HA 1:1, Choline Trans-3-Methyl-Trans-2-Hexenoate 1:1]
Red blood cells
  Red blood cell hitchhiking: successfully hitchhike red blood cells

## CCCCCCC(=O)O [CAHPA 1:1, Choline Heptanoate 1:1]
Red blood cells
  Red blood cell hitchhiking: successfully hitchhike red blood cells

## Nc1nc(NC2CC2)c2ncn([C@H]3C=C[C@@H](CO)C3)c2n1 [ABC, abacavir]
[2]; ABC 2%, estimated by quantitative 1H NMR
  Encapsulation efficiency (EE) of ABC: ~ 84.6%
[2]
  ABC encapsulated: ~ 62.7 μg/mL
[2]; listed as abacavir (ABC)
  ABC encapsulated: ~ 60 μg/mL
HIV-1BaL
  HIV-1 viral replication (p24) vs HIV-infected cells: significantly attenuated viral replication
[3]
  Abacavir regional brain accumulation: accumulate most greatly in the cerebellum, interbrain, striatum, and midbrain regions; also recorded: lesser (but considerable) delivery to the hippocampus, cerebral cortex, and hypothalamus regions

## CC/C(C)=C/C(=O)O [CA3ME2PE 1:1, Choline Trans-3-Methyl-Trans-2-Pentenoate 1:1]
Red blood cells
  Red blood cell hitchhiking: successfully hitchhike red blood cells

## CC/C=C(\C)C(=O)O [CAGAS 1:2, Choline trans-2-Methyl-2-Pentenoate 1:2]
Red blood cells
  Red blood cell hitchhiking: successfully hitchhike red blood cells

## CC/C=C/CC(=O)O [CA3HA 1:1, Choline 3-Hexenoate 1:1]
Red blood cells
  Red blood cell hitchhiking: successfully hitchhike red blood cells

## CCC/C=C/C(=O)O [CA2HA 1:1, Choline 2-Hexenoate 1:1]
Red blood cells
  Red blood cell hitchhiking: successfully hitchhike red blood cells
